Results published in ChEMBL document CHEMBL4346710, “Discovery of 7H-pyrrolo[2,3-d]pyrimidine derivatives as selective covalent irreversible inhibitors of interleukin-2-inducible T-cell kinase (Itk)” (Eur J Med Chem, 2019).
The source made the active and inactive calls. The rule behind the calls is not given here.

Legend:
[1] = molecular target: Tyrosine-protein kinase BTK (Homo sapiens, UniProt Q06187); test: Inhibition of recombinant human full-length N-terminal His6-tagged BTK expressed in baculovirus infected Sf21 insect cells using STK substrate by HTRF assay
Chain of Tyrosine-protein kinase BTK (Q06187 whole entry, the tested form may be a part): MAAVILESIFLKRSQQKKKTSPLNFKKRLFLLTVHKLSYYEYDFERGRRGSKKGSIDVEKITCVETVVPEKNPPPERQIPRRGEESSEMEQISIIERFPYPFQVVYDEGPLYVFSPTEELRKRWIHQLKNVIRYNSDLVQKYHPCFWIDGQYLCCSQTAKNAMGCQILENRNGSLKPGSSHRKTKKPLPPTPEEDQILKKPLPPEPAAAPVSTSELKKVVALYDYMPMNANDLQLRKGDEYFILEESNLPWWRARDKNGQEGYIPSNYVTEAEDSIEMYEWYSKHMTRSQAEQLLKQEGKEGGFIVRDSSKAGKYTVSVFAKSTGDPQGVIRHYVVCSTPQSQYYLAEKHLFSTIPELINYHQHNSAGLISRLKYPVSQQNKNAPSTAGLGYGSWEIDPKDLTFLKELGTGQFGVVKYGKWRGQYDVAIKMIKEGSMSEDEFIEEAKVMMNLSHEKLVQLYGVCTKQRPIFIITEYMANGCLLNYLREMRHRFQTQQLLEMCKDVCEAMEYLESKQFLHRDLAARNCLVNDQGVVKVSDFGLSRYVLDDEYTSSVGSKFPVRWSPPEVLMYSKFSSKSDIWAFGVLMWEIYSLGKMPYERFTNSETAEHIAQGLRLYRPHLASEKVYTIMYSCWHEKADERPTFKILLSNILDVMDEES

[2] = molecular target: Epidermal growth factor receptor (Homo sapiens, UniProt P00533); test: Inhibition of recombinant human N-terminal GST-tagged EGFR kinase domain (696 to end residues) expressed in baculovirus infected Sf21 insect cells using STK as substrate by HTRF assay
Chain of Epidermal growth factor receptor (P00533 whole entry, the tested form may be a part): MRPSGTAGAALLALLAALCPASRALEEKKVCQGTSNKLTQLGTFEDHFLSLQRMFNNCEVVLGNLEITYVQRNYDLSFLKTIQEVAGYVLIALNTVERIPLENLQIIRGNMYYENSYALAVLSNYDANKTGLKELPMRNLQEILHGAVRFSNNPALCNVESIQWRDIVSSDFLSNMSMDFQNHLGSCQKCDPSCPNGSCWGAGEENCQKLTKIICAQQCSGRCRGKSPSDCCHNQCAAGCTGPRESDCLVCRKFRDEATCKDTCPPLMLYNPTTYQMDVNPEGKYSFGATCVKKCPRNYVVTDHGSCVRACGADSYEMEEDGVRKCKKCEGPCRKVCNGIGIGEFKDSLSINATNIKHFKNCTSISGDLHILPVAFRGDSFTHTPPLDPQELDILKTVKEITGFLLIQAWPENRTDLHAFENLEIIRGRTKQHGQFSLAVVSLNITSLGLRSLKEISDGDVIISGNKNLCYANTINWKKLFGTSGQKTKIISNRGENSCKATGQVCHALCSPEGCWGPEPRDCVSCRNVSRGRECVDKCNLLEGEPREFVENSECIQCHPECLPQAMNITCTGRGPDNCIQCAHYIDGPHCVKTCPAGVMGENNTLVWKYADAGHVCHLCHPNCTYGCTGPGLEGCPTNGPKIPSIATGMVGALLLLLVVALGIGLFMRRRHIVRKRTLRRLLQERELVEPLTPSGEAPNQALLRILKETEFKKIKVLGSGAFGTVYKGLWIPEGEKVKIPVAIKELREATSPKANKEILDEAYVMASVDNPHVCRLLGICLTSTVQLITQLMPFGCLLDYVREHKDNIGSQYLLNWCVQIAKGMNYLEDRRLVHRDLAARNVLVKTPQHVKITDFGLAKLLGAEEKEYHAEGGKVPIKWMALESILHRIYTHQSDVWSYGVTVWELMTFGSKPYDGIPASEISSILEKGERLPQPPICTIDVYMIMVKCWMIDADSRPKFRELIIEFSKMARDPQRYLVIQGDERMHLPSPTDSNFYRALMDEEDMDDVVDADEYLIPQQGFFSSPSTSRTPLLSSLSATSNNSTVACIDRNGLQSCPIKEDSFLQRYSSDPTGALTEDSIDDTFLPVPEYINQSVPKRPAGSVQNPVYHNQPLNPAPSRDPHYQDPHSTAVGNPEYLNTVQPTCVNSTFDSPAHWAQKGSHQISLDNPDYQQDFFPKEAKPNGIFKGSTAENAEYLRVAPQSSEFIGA

[3] = molecular target: T1, Tyrosine-protein kinase ITK/TSK (Homo sapiens) (UniProt Q08881); test: Inhibition of recombinant human N-terminal His6-tagged ITK (352 to 617 residues) expressed in baculovirus infected Sf21 insect cells assessed as inactivation rate constant using STK substrate by HTRF assay
T1 sequence (whole entry): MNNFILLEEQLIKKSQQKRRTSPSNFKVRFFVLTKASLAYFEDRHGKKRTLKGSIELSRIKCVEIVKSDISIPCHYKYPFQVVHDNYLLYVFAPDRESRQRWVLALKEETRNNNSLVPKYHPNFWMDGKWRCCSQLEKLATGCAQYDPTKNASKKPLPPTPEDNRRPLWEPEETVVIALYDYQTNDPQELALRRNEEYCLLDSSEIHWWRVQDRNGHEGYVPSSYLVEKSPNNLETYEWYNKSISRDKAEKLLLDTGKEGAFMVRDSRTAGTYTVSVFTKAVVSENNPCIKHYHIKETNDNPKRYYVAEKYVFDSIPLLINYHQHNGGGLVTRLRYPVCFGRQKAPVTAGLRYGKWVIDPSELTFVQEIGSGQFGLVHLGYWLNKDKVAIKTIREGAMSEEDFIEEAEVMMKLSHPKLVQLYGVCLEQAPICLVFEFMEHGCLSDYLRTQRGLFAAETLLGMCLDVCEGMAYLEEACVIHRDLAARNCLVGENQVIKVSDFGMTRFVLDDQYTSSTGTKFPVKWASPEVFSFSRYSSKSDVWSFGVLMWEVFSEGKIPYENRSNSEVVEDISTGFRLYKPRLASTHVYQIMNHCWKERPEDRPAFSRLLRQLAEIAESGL

[4] = molecular target: T1, Tyrosine-protein kinase ITK/TSK (Homo sapiens); test: Inhibition of recombinant human N-terminal His6-tagged ITK (352 to 617 residues) expressed in baculovirus infected Sf21 insect cells assessed as ratio of Kinact to Ki using STK substrate by HTRF assay
[5] = molecular target: T1, Tyrosine-protein kinase ITK/TSK (Homo sapiens); test: Inhibition of ITK in human Jurkat cells assessed as reduction in anti-CD3/CD28-stimulated PLCgamma1 phosphorylation at 0.1 to 10000 nM preincubated for 2 hrs followed by anti-CD3/CD28 beads addition and measured after 30 min by Western blot analysis; type: cell-based
[6] = molecular target: T2, Tyrosine-protein kinase ITK/TSK (Homo sapiens, UniProt Q08881); test: Inhibition of recombinant human N-terminal His6-tagged ITK (352 to 617 residues) expressed in baculovirus infected Sf21 insect cells using STK substrate by HTRF assay
T2 sequence (Q08881 whole entry): T1 sequence (whole entry)

[7] = molecular target: T1, Tyrosine-protein kinase ITK/TSK (Homo sapiens); test: Covalent binding affinity to recombinant human ITK assessed as binding to Cys442 residue at 50 uM incubated for 24 hrs prior to trypsin addition for 4 hrs and boiled for 3 min followed by chymotrypsin addition and measured after overnight incubation by LC/MS/MS analysis
[8] = molecular target: T3, Tyrosine-protein kinase JAK3 (Homo sapiens, UniProt P52333); test: Inhibition of recombinant human N-terminal His6-tagged JAK3 (781 to end residues) expressed in baculovirus infected Sf21 cells using STK as substrate by HTRF assay
T3 sequence (P52333 whole entry): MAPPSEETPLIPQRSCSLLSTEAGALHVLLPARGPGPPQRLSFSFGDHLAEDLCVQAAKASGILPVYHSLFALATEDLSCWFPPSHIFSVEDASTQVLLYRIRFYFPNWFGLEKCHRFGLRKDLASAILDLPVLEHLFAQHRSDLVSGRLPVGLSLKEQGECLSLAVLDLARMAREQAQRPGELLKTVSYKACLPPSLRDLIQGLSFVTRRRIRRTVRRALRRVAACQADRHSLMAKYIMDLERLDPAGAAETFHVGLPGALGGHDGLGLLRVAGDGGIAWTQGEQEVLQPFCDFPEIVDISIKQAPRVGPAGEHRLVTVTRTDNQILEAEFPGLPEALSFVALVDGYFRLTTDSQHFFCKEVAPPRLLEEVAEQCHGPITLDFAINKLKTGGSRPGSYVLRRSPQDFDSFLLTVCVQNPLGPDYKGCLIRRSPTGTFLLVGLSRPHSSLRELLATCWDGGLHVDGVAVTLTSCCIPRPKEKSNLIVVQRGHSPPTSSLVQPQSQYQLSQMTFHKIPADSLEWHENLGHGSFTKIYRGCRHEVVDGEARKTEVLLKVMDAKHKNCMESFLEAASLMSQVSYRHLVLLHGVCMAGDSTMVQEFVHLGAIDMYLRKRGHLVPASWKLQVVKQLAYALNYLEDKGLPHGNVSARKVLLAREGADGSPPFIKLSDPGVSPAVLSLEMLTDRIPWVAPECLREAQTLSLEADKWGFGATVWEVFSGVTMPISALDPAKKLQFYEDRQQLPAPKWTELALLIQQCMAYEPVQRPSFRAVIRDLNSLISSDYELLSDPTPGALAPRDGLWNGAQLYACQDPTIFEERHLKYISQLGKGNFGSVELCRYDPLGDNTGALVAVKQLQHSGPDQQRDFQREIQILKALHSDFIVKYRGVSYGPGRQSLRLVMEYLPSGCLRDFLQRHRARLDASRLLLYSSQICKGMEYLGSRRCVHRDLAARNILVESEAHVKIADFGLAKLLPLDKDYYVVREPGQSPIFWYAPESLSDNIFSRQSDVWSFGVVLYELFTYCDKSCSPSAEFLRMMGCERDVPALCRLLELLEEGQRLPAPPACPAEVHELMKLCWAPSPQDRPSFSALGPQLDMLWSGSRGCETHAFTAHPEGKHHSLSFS

[9] = molecular target: T2, Tyrosine-protein kinase ITK/TSK; test: Inhibition of kinase tracer 236 binding to recombinant full length GST-tagged human ITK cytoplasmic domain expressed in baculovirus expression system incubated for 60 mins by Lanthascreen assay
[10] = molecular target: T1, Tyrosine-protein kinase ITK/TSK (Homo sapiens); test: Inhibition of human ITK at 1 uM using MAP as substrate in presence of [gamma33P]-ATP relative to control
[11] = system: HEK-293T; test: Growth inhibition of HEK293T cells incubated for 72 hrs by CellTiter-Glo luminescent cell viability assay; type: functional; conditions: Homo sapiens
[12] = system: MOLT-4; test: Growth inhibition of human MOLT4 cells incubated for 72 hrs by CellTiter-Glo luminescent cell viability assay; type: functional; conditions: MOLT-4, 72 h
[13] = system: CCRF-CEM; test: Growth inhibition of human CCRF-CEM cells incubated for 72 hrs by CellTiter-Glo luminescent cell viability assay; type: functional
[14] = system: H9; test: Growth inhibition of human H9 cells incubated for 72 hrs by CellTiter-Glo luminescent cell viability assay; type: functional; conditions: H9, 72 h
[15] = system: Jurkat; test: Growth inhibition of human Jurkat cells incubated for 72 hrs by CellTiter-Glo luminescent cell viability assay; type: functional
[16] = molecular target: Tyrosine-protein kinase Blk (Homo sapiens, UniProt P51451); test: Inhibition of BLK (unknown origin) using […] as substrate by HTRF assay
Chain of Tyrosine-protein kinase Blk (P51451 whole entry): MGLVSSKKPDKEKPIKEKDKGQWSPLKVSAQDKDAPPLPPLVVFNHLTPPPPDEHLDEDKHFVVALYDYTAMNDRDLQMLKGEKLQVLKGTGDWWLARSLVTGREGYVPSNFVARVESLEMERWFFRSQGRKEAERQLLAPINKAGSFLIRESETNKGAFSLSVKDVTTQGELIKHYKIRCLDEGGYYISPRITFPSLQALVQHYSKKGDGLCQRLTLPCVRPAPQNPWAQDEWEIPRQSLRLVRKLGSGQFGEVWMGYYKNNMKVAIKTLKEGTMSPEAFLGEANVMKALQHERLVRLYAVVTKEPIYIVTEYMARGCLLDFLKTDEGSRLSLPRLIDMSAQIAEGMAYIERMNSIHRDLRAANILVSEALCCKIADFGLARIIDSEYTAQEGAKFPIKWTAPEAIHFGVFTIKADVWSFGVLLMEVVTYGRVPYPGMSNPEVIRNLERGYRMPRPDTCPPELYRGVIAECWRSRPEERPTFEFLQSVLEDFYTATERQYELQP

| Compound | IC50 [1] [nM] | IC50 [2] [nM] | IC50 [6] [nM] | IC50 [8] [nM] | further results |
| --- | --- | --- | --- | --- | --- |
| C=CC(=O)N1CCC[C@@H](Oc2nc(Nc3ccc(N4CCOCC4)cc3)nc3[nH]cc(-c4cncc(NC)n4)c23)C1 | 35 | 138 | < 1.26 | 11 | K [3]: 0.31 min⁻¹; Ratio [4]: 891 ×10³ /M.s; inhibition [5]: Active; Ki [6]: 5.8 nM; Activity [7]: Active |
| C=CC(=O)N1CCC[C@H]1COc1nc(Nc2ccc(N3CCN(C(C)=O)CC3)cc2)nc2[nH]cc(-c3cncc(NC)n3)c12 | 434 | 1970 | 7.8 | 3.7 | – |
| COc1ccc(-c2c[nH]c3nc(Nc4ccc(N5CCOCC5)cc4)nc(Oc4ccccc4)c23)cc1 | – | – | – | – | IC50 [9]: > 10000 nM |
| C=CC(=O)Nc1cccc(Oc2nc(Nc3ccc(N4CCN(C(C)=O)CC4)cc3)nc3[nH]cc(-c4cncc(NC)n4)c23)c1 | 8 | – | 5.4 | – | – |
| C=CC(=O)Nc1cccc(Oc2nc(Nc3ccc(N4CCN(C)CC4)c(F)c3)nc3[nH]ccc23)c1 | – | – | – | – | inhibition [10]: 80% |
| C=CC(=O)N1CCC(Oc2nc(Nc3ccc(N4CCN(C(C)=O)CC4)cc3)nc3[nH]cc(-c4cncc(NC)n4)c23)CC1 | 1480 | 903 | 2.3 | 51 | – |
| C=CC(=O)N1CCC[C@@H]1COc1nc(Nc2ccc(N3CCN(C(C)=O)CC3)cc2)nc2[nH]cc(-c3cncc(NC)n3)c12 | 286 | 150 | 2.2 | 69 | – |
| CNc1cncc(-c2c[nH]c3nc(Nc4ccc(N5CCN(C(C)=O)CC5)cc4)nc(OC4CCCCC4)c23)n1 | 1470 | 654 | 5.1 | 104 | – |
| Nc1ccc(-c2c[nH]c3nc(Nc4ccc(N5CCOCC5)cc4)nc(Oc4ccccc4)c23)cc1 | – | – | – | – | IC50 [9]: > 10000 nM |
| C=CC(=O)N1CCC(Oc2nc(Nc3ccc(N4CCOCC4)cc3)nc3[nH]cc(-c4ccnc(NC)c4)c23)CC1 | 36 | 38 | < 1.26 | 4.2 | – |
| CNc1cncc(-c2c[nH]c3nc(Nc4ccc(N5CCN(C(C)=O)CC5)cc4)nc(Oc4ccccc4)c23)n1 | 1460 | 1050 | 5.4 to 19 | 470 | – |
| C=CC(=O)N1CCC(Oc2nc(Nc3ccc(N4CCOCC4)cc3)nc3[nH]cc(-c4cncc(NC)c4)c23)CC1 | 942 | > 3000 | 3.6 | 84 | GI50 [11]: 270 nM; GI50 [12]: 109 nM; GI50 [13]: 48 nM; GI50 [14]: 190 nM; GI50 [15]: 188 nM |
| CNc1cncc(-c2c[nH]c3nc(Nc4ccc(N5CCN(C(C)=O)CC5)cc4)nc(OC4CCOCC4)c23)n1 | 1610 | 937 | 7.1 | 186 | – |
| C=CC(=O)N1CCC[C@@H](Oc2nc(Nc3ccc(N4CCN(C(C)=O)CC4)cc3)nc3[nH]cc(-c4cncc(NC)n4)c23)C1 | 270 | 499 | 3.7 | 24 | K [3]: 0.31 min⁻¹; Ratio [4]: 153 ×10³ /M.s; inhibition [5]: Active; Ki [6]: 33.7 nM |
| C=CC(=O)Nc1cccc(Oc2nc(Nc3ccc(N4CCOCC4)cc3)nc3[nH]cc(-c4ccncc4)c23)c1 | 3.9 | 2.3 | 0.5 | 0.6 | IC50 [16]: 0.7 nM |
| C=CC(=O)N1CCC[C@@H](Oc2nc(Nc3ccc(N4CCN(CC)CC4)cc3)nc3[nH]cc(-c4cncc(NC)n4)c23)C1 | 26 | 8.7 | 1.3 | 1.2 | – |
| C=CC(=O)N1CCC(Oc2nc(Nc3ccc(N4CCOCC4)cc3)nc3[nH]cc(-c4cccc(NC)n4)c23)CC1 | > 10000 | > 3000 | 74 | 1430 | – |
| C#CCCN1CCN(c2ccc(Nc3nc(OC4CCN(C(=O)C=C)CC4)c4c(-c5cncc(NC)n5)c[nH]c4n3)cc2)CC1 | > 3000 | > 3000 | 55 | 61 | – |
| C=CC(=O)N1CCC[C@H](Oc2nc(Nc3ccc(N4CCN(C(C)=O)CC4)cc3)nc3[nH]cc(-c4cncc(NC)n4)c23)C1 | > 10000 | – | 375 | – | – |
